Assay results published in PMC9030166, “Natural Phaeosphaeride A Derivatives Overcome Drug Resistance of Tumor Cells and Modulate Signaling Pathways” (Pharmaceuticals, 2022).

Assays:
[1] = system: HBL-100; test: MTT cytotoxicity, sensitive HBL-100 cells; format: cell-based; conditions: Homo sapiens, 48 h
Text: (§1) Cell cultures used in the work: adhesive cultures HBL-100 cells (cells of a normal mammary gland epithelium, immortalized by the SV40 virus and acquired tumorigenicity); MCF-7 breast cancer cells; PC-3 prostate adenocarcinoma cells; HCT-116 colorectal cancer cells; non-small cell lung cancer cells A549; human embryonic kidney cells HEK293; suspension cultures (NCI-H929 and RPMI8226 multiple myeloma cells), K562 chronic myeloid leukemia cells; THP-1 acute monocytic leukemia cells; and Jurkat acute T-cell leukemia cells. We also used several primary cultures of soft tissue sarcomas at 3–4passeges, kindly provided by T.I. Fetisov (The Ethics Committee of N.N. Blokhin NMRCO, protocol code 18-28-09095 and date of approval 28 September 2018).
(§2) Cells MCF-7, PC-3, A549, and HCT-116, and primary cultures of STSwere seeded in 96-well plates, 6 × 10^3 cells per well in 90 μL of culture medium. Suspension cultures were seeded at a concentration of 25 × 10^3 cells per well in 135 μL of medium. The test substances were dissolved in DMSO (Applichem, Council Bluffs, IA, USA) until a concentration of 1 × 10^−^2 M was obtained; for the subsequent dilution of the substances, a serum-free culture medium was used. The next day, for adhesive cultures, and on the same day, for suspension cultures, substances were added to the plates in a volume of 10 μL (adhesive cultures) and 15 μL (suspension cultures) per well at various concentrations; each concentration was added in 3–4 repetitions. The cells were cultured in the presence of substances for 48 h. Then, MTT reagent (PanEko, Moscow, Russia) was added to the wells at a concentration of 5 mg/mL in a volume of 20 μL per well. After 1.5–2 h, the medium with the reagent was removed, and the precipitate of the crystals of formazan was dissolved in 60 μL of DMSO. The optical density was determined using a Multiskan FC spectrophotometer (Thermo Scientific, Waltham, MA, USA) at a wavelength of 540 nm.
(§3) Based on the results of the experiments, a schedule was plotted of the dependence of the percentage of surviving cells (from control) on the concentration of the compound, and the sought concentration IC50 was calculated. The experiments were carried out in 3–4 times.

[2] = system: JNK (pThr183/pTyr185); test: MILLIPLEX MAP 9-Plex, JNK active form in A431 lysates; format: cell-based, human; conditions: 10 μM; for JNK (pThr183/pTyr185) fluorescence intensity: A431 cell lysates, 1 h, M ± mx, control 50.9 ± 10.5; for activation of signaling pathway JNK (pThr183/pTyr185), in words: A431 cells
Text: (§4) We used the MILLIPLEX MAP Multi-Pathway Magnetic Bead 9-Plex-Cell Signaling Multiplex Assay, which allows the simultaneous detection of nine phosphorylated proteins that are markers of the main intracellular signaling pathways (phosphorylation site is indicated in parentheses), a universal transcription factor that controls the expression of immune response genes; apoptosis and cell cycle NFκB (pS536); cAMP-dependent transcription factor (CREB (pS133); mitogen-activated kinase p38 (pT180/pY182); stress-activated protein kinase JNK (pT183/pY185); ribosomal […]; transcription factors STAT3 (pS727) and STAT5A/B (pY694/699); protein kinase B (Akt) (pS473); and kinase regulated by extracellular signals ERK1/2 (pT185/pY187).
(§5) The effect of various concentrations of PPA derivatives on the cell culture was studied using xCelligence RTCA equipment (AceaBioscience, San Diego, CA, USA). The concentration closest to the IC50 (10 μM) was chosen as the experimental concentration. The selected concentration of phaeosphaeride A derivatives allows for the assessment of the early effect of compounds on cells and compares their effectiveness. In this experiment, the signaling pathways Akt (pSer473), p70S6K (pThr412), NFkB (p65-pSer536), and CREB (pSer133) were not activated (Table 8). The stress-activated signaling pathways ERK/MAP kinase 1/2 (pThr185/pTyr187), JNK (pThr183/pTyr185), and p38 (pThr180/pTyr182) were activated for these compounds.
(§6) We used a MILLIPLEX MAP Multi-Pathway Magnetic Bead 9-Plex-Cell Signaling Multiplex Assay kit (Merck/Millipore), according to the manufacturer’s protocol. A431 cells were cultured in DMEM with 10% FBS in 24-well plates. Compounds were added to the subconfluent cells at a concentration of 10 μM in DMEM medium for 1 h. Each compound was added in 5 experimental repeats. Cell lysates were prepared with lysis buffer (Millipore) with protease inhibitors (Complete, Roche); the protein concentration in the lysates was determined by the Lowry method. In samples equalized in protein concentration, the active forms of kinase cascades were determined using a Bio-Plex 200 fluorescent analyzer (Bio-Rad).

[3] = system: THP-1; test: MTT cytotoxicity, THP-1 acute monocytic leukemia cells; format: cell-based; conditions: Homo sapiens, suspension culture, 48 h
Text: as §1
(§7) Modifications of cell lines: K562/i-S9 is a clone obtained after transfection of K562 cells with the ABCB1 (MDR1) gene-encoding P-glycoprotein [36]. Cells HBL-100/Dox and K562/i-S9_Dox are cells obtained by long-term selection with increasing concentrations of doxorubicin (Sigma-Aldrich, St. Louis, MO, USA) from HBL-100 and K562/i-S9 cells, respectively. MCF-7, A594 cells, and primary cultures of soft tissue sarcomas were cultured in DMEM medium (PanEko, Russia), PC-3 and HCT-116 cells and all suspension cultures in RPMI1640 medium (PanEko, Russia) supplemented with 10% fetal bovine serum (GE Healthcare LifeSciences, USA), and gentamicin at a concentration of 40 μg/mL at 37 °C and 5% CO2.
as §2, §3

[4] = system: CMT № 3 (Epithelial Sarcoma (Metastasis)); test: MTT cytotoxicity, primary culture of soft tissue sarcoma CMT № 3; format: cell-based; conditions: Homo sapiens, 48 h
Text: It is believed that such cultures have a molecular profile that corresponds more with cells from the human body, in comparison with that of stable cultures of tumor cells (Table 3).
as §1, §7
as §2, with “Then, MTT reagent (PanEko, Moscow, Russia) was added to the wells at a concentration of 5 mg/mL in a volume of 20 μL per well. After 1.5–2 h, the medium with the reagent was removed, and the precipitate of the crystals of formazan was dissolved in 60 μL of DMSO.” left out
Based on the results of the experiments, a schedule was plotted of the dependence of the percentage of surviving cells (from control) on the concentration of the compound, and the sought concentration IC50 was calculated. […]

[5] = system: Jurkat; test: MTT cytotoxicity, Jurkat acute T-cell leukemia cells; format: cell-based; conditions: Homo sapiens, suspension culture, 48 h
Text: as §1, §7, §2, §3

[6] = system: PC3; test: MTT cytotoxicity, PC-3 prostate adenocarcinoma cells; format: cell-based, human; conditions: 48 h; for IC50: Homo sapiens, PC-3, adhesive tumor culture
Text: as §1, §7, §2, §3

[7] = system: HBL-100/Dox; test: MTT cytotoxicity, resistant HBL-100/Dox cells; format: cell-based, human; conditions: for IC50: Homo sapiens, HBL-100, resistant version, MTT, 48 h; for resistance of HBL-100/Dox cells relative to HBL-100: ratio of IC50 values, Table 5
Text: At the next stage, the cytotoxic activity of compounds 1, 2, and 9 (Scheme 2) was investigated on several pairs of cell lines that differ in the expression of P-gp and the method by which they were obtained. […] K562/i-S9_Dox cells were obtained from K562/i-S9 by selection with low concentrations of doxorubicin to increase P-gp expression.
as §7, §2
The experiments were carried out in 3–4 times.

[8] = system: p70S6K (pThr389/412); test: MILLIPLEX MAP 9-Plex, p70S6K active form in A431 lysates; format: cell-based, human; conditions: A431 cell lysates, 10 μM, 1 h, M ± mx; control 39.9 ± 7.2
Text: as §4, §5, §6

[9] = system: A549; test: MTT cytotoxicity, A549 non-small cell lung cancer cells; format: cell-based, human; conditions: 48 h; for IC50: Homo sapiens, A549, adhesive tumor culture
Text: as §1, §7, §2, §3

Structure (SMILES) | IC50 [1] | JNK (pThr183/pTyr185) fluorescence intensity [2] | IC50 [3] | IC50 [4] | IC50 [5] | IC50 [6] | IC50 [7] | resistance of HBL-100/Dox cells relative to HBL-100 [7] | p70S6K (pThr389/412) fluorescence intensity [8] | IC50 [9] | activation of signaling pathway JNK (pThr183/pTyr185), in words [2] | IC50 value, PC3 ([6]; adhesive tumor culture) | IC50 value, A549 ([9]; adhesive tumor culture)
C=C1C2=C(C(=O)N1OC)[C@@H](N(CC)CCO)[C@@](C)(O)[C@H](CCCCC)O2 [Compound 9, (2S,3R,4R)-4-[ethyl(2-hydroxyethyl)amino]-3-hydroxy-6-methoxy-3-methyl-7-methylene-2-pentyl-3,4,6,7-tetrahydropyrano[2,3-c]pyrrol-5(2H)-one] | 6.5 ± 0.8 µM | 117.9 ± 15.1 *↑ rel. units | 1.7 ± 0.2 µM | 13 ± 0.9 µM | 1.3 ± 0.4 µM | 7.8 ± 0.1 µM | 8.4 ± 0.4 µM | tendency towards a slightly higher resistance | 38.8 ± 7.4 rel. units | 8.9 ± 0.2 µM | – | – | –
C=C1C2=C(C(=O)N1OC)[C@@H](N(C)C)[C@@](C)(O)[C@H](CCCCC)O2 [Compound 2, (2S,3R,4R)-4-(dimethylamino)-3-hydroxy-6-methoxy-3-methyl-7-methylene-2-pentyl-3,4,6,7-tetrahydropyrano[2,3-c]pyrrol-5(2H)-one] | 4.9 ± 1 µM | 559.2 ± 31.5 *↑ rel. units | 0.9 ± 0.3 µM | 7.8 ± 0.6 µM | 1.1 ± 0.1 µM | 5.9 ± 3 µM | 6.6 ± 1.2 µM | no difference in resistance | 56.9 ± 9.9 rel. units | 9.6 ± 2.1 µM | maximum degree of activation | – | –
C=C1C2=C(C(=O)N1OC)[C@@H](N(CCCC)CCCC)[C@@](C)(O)[C@H](CCCCC)O2 [Compound 5, (2S,3R,4R)-4-(dibutylamino)-3-hydroxy-6-methoxy-3-methyl-7-methylene-2-pentyl-3,4,6,7-tetrahydropyrano[2,3-c]pyrrol-5(2H)-one] | – | 83.1 ± 8.3 *↑ rel. units | 8.2 ± 0.6 µM | – | 3.7 ± 0.2 µM | 9.4 ± 1 µM | – | – | 70.6 ± 9.2 *↑ rel. units | 23.4 ± 2.3 µM | only slightly activated | – | –
CCCCC[C@@H]1OC2=C(C(=O)N(OC)/C2=C\n2cnnc2)C(n2cnnc2)[C@@]1(C)O (stereo partly drawn) [Compound 10] | – | 157.2 ± 15.4 *↑ rel. units | 42 ± 5.2 µM | – | 94 ± 22.6 µM | – | – | – | 53.4 ± 4.0 rel. units | – | only slightly activated | not active | not active
C=C1C2=C(C(=O)N1OC)[C@@H](N1CCCC1)[C@@](C)(O)[C@H](CCCCC)O2 [Compound 1] | 6.2 ± 0.8 µM | 239.9 ± 23.9 *↑ rel. units | 1.5 ± 0.4 µM | 4.8 ± 0.9 µM | 1.5 ± 0.4 µM | 7.6 ± 0.9 µM | 7.6 ± 0.6 µM | no difference in resistance | 51.7 ± 4.8 rel. units | 14 ± 0.1 µM | – | – | –
